The results in this text go back to PMC9144276, “In Vitro and In Silico Evaluation of Cholinesterase Inhibition by Alkaloids Obtained from Branches of Abuta panurensis Eichler” (Molecules, 2022).

For the assay, the target named is T1, acetylcholinesterase enzyme from an electric ray Tetronarce californica (Tetronarce californica, UniProt P04058).
T1 construct: purchased Sigma-Aldrich
In words: Acetylcholinesterase inhibition assay (Ellman method, 96-well microplates). The assay is classed as biochemical. The following applies: for inhibition percentage toward the AChE enzyme: concentration not given. The protocol: An acetylcholinesterase enzyme from an electric ray Tetronarce californica (Sigma-Aldrich, St. Louis, MO, USA) was used for the experiments. The in vitro AChE inhibition assay was performed in 96-well microplates according to the methodology proposed by Ellman et al. and Senol et al. with some modifications. The alkaloid fraction and alkaloids were tested at concentrations of 2.8; 5.6; 11.2; 22.5; 45.0 and 90.0 µg/mL. Initially, 20 µL of each sample from the stock solution (1 mg/mL) were added and serial dilutions were performed. Then, 150 µL of a sodium phosphate buffer pH = 8 ([…]), 20 µL of 5,5’-dithio-bis(2- nitrobenzoic)acid (DTNB, 0.0025 M), and 20 µL of the acetylcholinesterase enzyme (1 U/mL) were added subsequently to each well at 25 °C and left for 15 min. The reaction was initiated by the addition of 10 µL of […] (AChI) (0.1 M). Neostigmine (0.28–9.0 μg/mL) was used as a positive control.
A thiocholine formed by the enzymatic hydrolysis of the AChI, reacts with the DTNB giving rise to a yellow 5-mercapto-2-nitrobenzoate anion. Concentration of the latter in each well was measured as absorbance at 405 nm by using a 96-well microplate reader ELx800^TM (Bio Tek Instruments, Inc., Winooski, VT, USA). The transformation was monitored for 30 min at 5-min intervals. The inhibition curve was plotted as the inhibition percent vs. concentration. All assays were performed in triplicate. Statistical analysis was performed with GraphPad Prism 7.0® software.
Background: DTNB colorimetry detects thiols as they appear.

The mark [1] stands for this setting: TcAChE, Ellman, 25 °C, pH 8, triplicate, read-out: IC50 for the acetylcholinesterase (AChE) inhibition assay.

The structures appear in SMILES notation. Where two headings read alike, the source gives them in different places.

T1 sequence (P04058 22-586): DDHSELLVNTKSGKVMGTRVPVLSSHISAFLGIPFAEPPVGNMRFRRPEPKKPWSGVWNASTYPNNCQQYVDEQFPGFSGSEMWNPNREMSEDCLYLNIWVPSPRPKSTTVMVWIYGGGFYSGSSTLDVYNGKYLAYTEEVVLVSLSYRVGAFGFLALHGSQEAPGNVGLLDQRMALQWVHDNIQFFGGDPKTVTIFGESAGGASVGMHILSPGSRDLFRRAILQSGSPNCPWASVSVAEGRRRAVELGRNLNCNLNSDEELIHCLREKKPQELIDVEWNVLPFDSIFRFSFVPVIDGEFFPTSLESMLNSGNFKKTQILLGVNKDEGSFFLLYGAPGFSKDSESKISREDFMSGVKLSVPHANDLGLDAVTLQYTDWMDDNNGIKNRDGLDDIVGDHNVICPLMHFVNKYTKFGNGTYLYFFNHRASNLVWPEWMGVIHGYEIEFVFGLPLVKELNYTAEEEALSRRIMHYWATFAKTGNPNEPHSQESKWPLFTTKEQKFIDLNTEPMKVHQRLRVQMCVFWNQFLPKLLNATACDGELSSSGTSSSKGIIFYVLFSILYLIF

One may read the IC50 as the midpoint of a concentration-inhibition curve. `COc1cc2c(cc1O)C(Cc1ccc(O)c(Oc3cc4c(cc3OC)CCNC4Cc3ccc(O)cc3)c1)NCC2` (single isomer, unassigned) [lindoldhamine isomer 1, Lindoldhamine isomer]: the IC50 under setting [1] came to 39.38 ± 0.08 µM. For the same molecule, the “inhibition percentage toward the AChE enzyme” value (TcAChE) was “above 70%”.

For the molecule `CN(CCCCNC(=O)/C=C/c1ccccc1)CCCNC(=O)/C=C/c1ccccc1` [5-N-methylmaytenine 4, 5-N-methylmaytenine], the IC50 stood at 19.55 ± 0.09 µM. In addition, the “inhibition percentage toward the AChE enzyme” value (TcAChE) is “above 70%”.

Regarding `CN(C)C(=O)Oc1cccc([N+](C)(C)C)c1` [neostigmine, reference compound], the IC50 under setting [1] was found to be 3.72 ± 0.03 µM. Also, for the setting “TcAChE”, the “inhibition percentage toward the AChE enzyme” value was “above 70%”.

As to `COc1cc2c(cc1OC)-c1cc3ccc(OC)c(OC)c3c[n+]1CC2` [palmatine 3, palmatine], the IC50 under setting [1] was found to be 35.25 ± 0.04 µM. The “inhibition percentage toward the AChE enzyme” value (TcAChE) is recorded as “above 70%”.

On to `COc1cc2c3c(c1OC)C1(C=CC(=O)C=C1)CC3NCC2` (stereo not shown) [stepharine 2, stepharine], for which the IC50 under setting [1] came out at 61.24 ± 0.03 µM. For the same molecule, the “inhibition percentage toward the AChE enzyme” value (TcAChE) was “above 70%”.
